Data as given in patent publication US20110288052A1, “NOVEL COMPOUNDS, PHARMACEUTICAL COMPOSITIONS CONTAINING SAME, AND METHODS OF USE FOR SAME” (priority 2008, published 2011).
≈ marks a conversion by molar mass, not a printed value.

Columns and labels:
[1] = system: MCF-7 human breast cancer cells (fatty acid synthesis pathway activity); assay: [14C]acetate incorporation into total lipids; type: cell-based; settings: MCF7, [14C]acetate incorporation into lipids
Protocol: Measurement of [^14C]acetate Incorporation into Total Lipids and Determination of IC50 of Compounds. This assay measures the incorporation of [^14C]acetate into total lipids and is a measure of fatty acid synthesis pathway activity in vitro. It is utilized to measure inhibition of fatty acid synthesis in vitro.
MCF-7 human breast cancer cells cultured as above, are plated at 5×10^4 cells per well in 24-well plates. Following overnight incubation, the compounds to be tested, solubilized in DMSO, are added at 5, 10, and 20 μg/ml in triplicate, with lower concentrations tested if necessary. DMSO is added to triplicate wells for a vehicle control. C75 is run at 5 and 10 μg/ml in triplicate as positive controls. After 4 hours of incubation, 0.25 μCi of [^14C]acetate (10 μl volume) is added to each well.
After 2 hours of additional incubation, medium is aspirated from the wells and 800 μl of chloroform:methanol (2:1) and 700 μl of 4 mM MgCl2 is added to each well. Contents of each well are transferred to 1.5 Eppendorf tubes, and spun at full-speed for 2 minutes in a high-speed Eppendorf Microcentrifuge 5415D. After removal of the aqueous (upper) layer, an additional 700 μl of chloroform:methanol (2:1) and 500 μl of 4 mM MgCl2 are added to each tube and then centrifuged for 1 minutes as above. The aqueous layer is removed with a Pasteur pipette and discarded. An additional 400 μl of chloroform:methanol (2:1) and 200 μl of 4 mM MgCl2 are added to each tube, then centrifuged and aqueous layer is discarded. The lower (organic) phase is transferred into a scintillation vial and dried at 40° C. under N2 gas. Once dried, 3 ml of scintillant (APB #NBC5104) is added and vials are counted for ^14C. The Beckman Scintillation counter calculates the average cpm values for triplicates.
The IC50 for the compounds is defined as the concentration of drug leading to a 50% reduction in [^14C]acetate incorporation into lipids compared to controls. This is determined by plotting the average cpm for each inhibitor concentration tested, performing linear regression and computing the best-fit line, r^2 values, and 95% confidence intervals. The average cpm values are computed by the Beckman scintillation counter (Model LS6500) for each compound concentration. Computation of linear regression, best-fit line, r^2, and 95% confidence intervals are calculated using Prism Version 3.0 (Graph Pad Software).

[2] = system: MCF-7 human breast cancer cells; assay: XTT cytotoxicity assay, MCF-7 (M); type: cell-based; settings: MCF7, MCF-7, 72 hours
Protocol: XTT Cytotoxicity Assay The XTT assay is a non-radioactive alternative for the [^51Cr] release cytotoxicity assay. XTT is a tetrazolium salt that is reduced to a formazan dye only by metabolically active, viable cells. The reduction of XTT is measured spectrophotometrically as OD490-OD650. To measure the cytotoxicity of specific compounds against cancer cells, 9×10^3 MCF-7 human breast cancer cells (shown in the tables as “(M)”), obtained from the American Type Culture Collection are plated per well in 96 well plates in DMEM medium with 10% fetal bovine serum, insulin, penicillin, and streptomycin. Following overnight culture at 37° C. and 5% CO2, the compounds to be tested, dissolved in DMSO, are added to the wells in 1 μl volume at the following concentrations: 80, 40, 20, 10, 5, 2.5, 1.25, and 0.625 μg/ml in triplicate. Additional concentrations are tested if required. 1 μl of DMSO is added to triplicate wells are the vehicle control. C75 is run at 40, 20, […], and 5 μg/ml in triplicate as positive controls. After 72 hours of incubation, cells are incubated for 4 hours with the XTT reagent as per manufacturer's instructions (Cell Proliferation Kit II (XTT) Roche). Plates are read at OD490 and OD650 on a Molecular Devices SpectraMax Plus Spectrophotometer. Three wells containing the XTT reagent without cells serve as the plate blank. XTT data are reported as OD490-OD650. Averages and standard error of the mean are computed using SOFTmax Pro software (Molecular Dynamics). The IC50 for the compounds is defined as the concentration of drug leading to a 50% reduction in OD490-OD650 compared to controls. The OD490-OD650 are computed by the SOFTmax PRO software (Molecular Devices) for each compound concentration. IC50 is calculated by linear regression, plotting the FAS activity as percent of control versus drug concentrations. Linear regression, best-fit line, r^2, and 95% confidence intervals are determined using Prism Version 3.0 (Graph Pad Software).

[3] = system: OVCAR3 cells; assay: XTT cytotoxicity assay, OVCAR3 (OV); type: cell-based; settings: Homo sapiens, OVCAR-3
Protocol: (§1) XTT Cytotoxicity Assay The XTT assay is a non-radioactive alternative for the [^51Cr] release cytotoxicity assay. XTT is a tetrazolium salt that is reduced to a formazan dye only by metabolically active, viable cells. The reduction of XTT is measured spectrophotometrically as OD490-OD650. To measure the cytotoxicity of specific compounds against cancer cells, 9×10^3 MCF-7 human breast cancer cells (shown in the tables as “(M)”), obtained from the American Type Culture Collection are plated per well in 96 well plates in DMEM medium with 10% fetal bovine serum, insulin, penicillin, and streptomycin. Following overnight culture at 37° C. and 5% CO2, the compounds to be tested, dissolved in DMSO, are added to the wells in 1 μl volume at the following concentrations: 80, 40, 20, 10, 5, 2.5, 1.25, and 0.625 μg/ml in triplicate. Additional concentrations are tested if required. 1 μl of DMSO is added to triplicate wells are the vehicle control. C75 is run at 40, 20, […], and 5 μg/ml in triplicate as positive controls. After 72 hours of incubation, cells are incubated for 4 hours with the XTT reagent as per manufacturer's instructions (Cell Proliferation Kit II (XTT) Roche). Plates are read at OD490 and OD650 on a Molecular Devices SpectraMax Plus Spectrophotometer. Three wells containing the XTT reagent without cells serve as the plate blank. XTT data are reported as OD490-OD650. Averages and standard error of the mean are computed using SOFTmax Pro software (Molecular Dynamics). The IC50 for the compounds is defined as the concentration of drug leading to a 50% reduction in OD490-OD650 compared to controls. The OD490-OD650 are computed by the SOFTmax PRO software (Molecular Devices) for each compound concentration. IC50 is calculated by linear regression, plotting the FAS activity as percent of control versus drug concentrations. Linear regression, best-fit line, r^2, and 95% confidence intervals are determined using Prism Version 3.0 (Graph Pad Software). The test was also run against OVCAR3 cells (“OV”), and HCT116 cells (“H”).

[4] = system: HCT116 cells; assay: XTT cytotoxicity assay, HCT116 (H); type: cell-based; settings: Homo sapiens, HCT-116
Protocol: as §1

[5] = Solubility problem noted during the assays; type: physicochemical; settings: read-out: Sol Prob (solubility problem at concentration)
[6] = system: MCF-7 human breast cancer cells (fatty acid oxidation pathway activity); assay: Fatty acid oxidation ([14C]palmitate to acid soluble products); type: cell-based; settings: Homo sapiens, MCF7; at 0.098 μg/ml; read-out: FAO Max
Protocol: Measurement of Fatty Acid Oxidation and Determination of SC150 of Compounds This assay measures the degradation of [^14C]palmitate into acid soluble products and is a measure of fatty acid oxidation pathway activity in vitro. It is utilized to measure fatty acid oxidation in vitro. MCF-7 human breast cancer cells cultured as above, are plated at 2.5×10^5 cells per well in 24-well plates. Following overnight incubation, the compounds to be tested, solubilized in DMSO, are added at […], 0.39, 1.56, 6.25, 25, and 100 μg/ml in triplicate, with lower concentrations tested if necessary. DMSO is added to triplicate wells for a vehicle control. C75 is run at 5 and 10 μg/ml in triplicate as positive controls. After 1 hour of incubation, medium is removed 100 uM of [^14C] palmitate in cyclodextran and 200 uM carnitine in serum free medium (250 μl volume) is added to each well. After 30 minutes of additional incubation, the reaction is stopped by addition of 2.6N HClO4. Contents of each well are transferred to 1.5 ml Eppendorf tubes and 4N KOH is added. The tubes are incubated for 30 minutes at 60° C. 1 M NaAcetate and 3N H2SO4 is added to each tube and vortexed. The tubes are centrifuged at 1000 rpm for 5 minutes at RT. 250 μl of the supernatant is transferred to a 2 ml eppendorf tube. To each tube is added: 938 μl of chloroform:methanol (1:1), 468 μl chloroform and 281 μl of deionized water. The tubes are vortexed and centrifuged at 1000 rpm for 5 minutes at RT. 750 μl of the upper phase is transferred into a scintillation vial 5 ml of scintillant is added and vials are counted for 1 minute for ^14C. The Beckman Scintillation counter calculates the average cpm values for triplicates. The SC150 for the compounds is defined as the concentration of drug leading to a 150% increase in production of acid soluble products of [^14C] palmitate as compared to untreated controls. This is determined by plotting the average cpm for each inhibitor concentration tested, performing linear regression and computing the best-fit line, r^2 values, and 95% confidence intervals. The average cpm values are computed by the Beckman scintillation counter (Model LS6500) for each compound concentration. Computation of linear regression, best-fit line, r^2, and 95% confidence intervals are calculated using Prism Version 3.0 (Graph Pad Software). If a compound fails to achieve this 150% threshold it is considered negative. The maximum value achieved is also reported (FAO Max).

CCCCCCCCC1(C)SC(=O)C=C1OCC(=O)Nc1ccc(C(N)=O)cc1 (centres unmarked)
IC50 [1]: 12.3 µg/mL (≈ 29.4 µM)
IC50 [2]: 10.2 µg/mL (≈ 24.4 µM)
IC50 [3]: 21.5 µg/mL (≈ 51.4 µM)
IC50 [4]: 10.6 µg/mL (≈ 25.3 µM)
solubility [5]: 80 µg/mL (≈ 191 µM)

CCCCCCCCC1(C)SC(=O)C=C1OCC(=O)N1CCN(c2ccc(Cl)cc2)CC1 (centres unmarked)
IC50 [2]: 35.7 µg/mL (≈ 74.5 µM)
IC50 [3]: 24.4 µg/mL (≈ 50.9 µM)
IC50 [4]: 9.7 µg/mL (≈ 20.2 µM)
Emax at 0.098 µg/mL [6]: 79%

CCCCCCCCC1(C)SC(=O)C=C1OCC(=O)N1CCN(Cc2ccc(OC)cc2)CC1 (centres unmarked)
IC50 [2]: 13.6 µg/mL (≈ 27.8 µM)
IC50 [3]: 79.8 µg/mL (≈ 163 µM)
IC50 [4]: 69.7 µg/mL (≈ 143 µM)
Emax at 0.098 µg/mL [6]: 83%

CCCCCCCCC1(C)SC(=O)C=C1OCC(=O)N1CCN(c2ccc(OC)cc2)CC1 (centres unmarked)
IC50 [2]: > 80 µg/mL
IC50 [3]: > 80 µg/mL
IC50 [4]: > 80 µg/mL
Emax at 0.098 µg/mL [6]: 53%
